The values that follow come from patent US11203583B2, “Prodrug and profluorescent compounds for selective mitochondrial imaging and therapeutic targeting” (ARIZONA BOARD OF REGENTS ON BEHALF OF ARIZONA STATE …, priority 2016, dated 2021).

Each structure is given as a SMILES string. “Also recorded” adds a separate entry of the source.

One data set addresses E. coli nitroreductase (Escherichia coli, UniProt P38489). The experiment in a line: Cell-free activation of profluorescent probes by purified E. coli nitroreductase (fluorescence monitoring). It counts as biochemical. The source says:
(§1) The strategy for the release of the fluorescent NIR dye from a non-fluorescent precursor via mitochondrial nitroreductase-mediated reduction involved successive reduction, then elimination (FIG. 5b). The use of ortho, meta and para substituted probes (2a-2c) was crucial because it enabled the investigation of the proposed transformation in greater detail. […] To assess the viability of these probes for the detection of nitroreductase activity, we first validated the probes in a cell free system using purified E. coli nitroreductase. Probes 2a-c (10 μM) were incubated in PBS buffer, pH 7.4, containing 0.5 mM NADH. After a short time, during which no fluorescence was observed, the nitroreductase was added (1 μg mL^−1) and the development of fluorescence was monitored as a function of time (FIGS. 6b, 6c). […] This confirms that the released fluorescent dye is effectively of the QCy7 type by comparison with an authentic standard prepared by chemical synthesis (FIG. 13). With the viability of this probe thus confirmed, we carried out microscopy experiments employing A549 cancer cells. The incubation of 10 μM 2c with the cells for 4 hours was followed by the addition of […] mitotracker green (40-minute incubation). […] The green channel (FIG. 7b) illustrates visualization of the mitochondria by mitotracker green. […] For 2b this is understandable as no elimination process is possible, as confirmed during the in vitro tests. In the case of 2a, we assume that the low kinetics of the reduction (c.f. FIG. 6b) is probably the cause of the absence of a strong signal. […]
A solution of fluorogenic probe was prepared in 1 mL of phosphate buffered saline (PBS) and 150 μL of the resulting solution was transferred into a quartz fluorescence cell. […] After excitation at 572 nm the emission of the released fluorophore was monitored at 703 nm over time with measurements recorded every 1 sec. After 100 sec of incubation, 1.51 μL of a 1 mg mL^−1 solution of E. coli nitroreductase in water was added in the quartz fluorescence cell and the solution was mixed as the monitoring proceeded.

Another data set deals with DT diaphorase (Homo sapiens, UniProt P15559). Kind of data set: Selectivity of probe activation: DT diaphorase versus nitroreductase. It counts as biochemical. The conditions noted are these: 10 μM 2c, 1 μg mL^-1 DTD or NTR, 10 mM PBS pH 7.4, 20 min, 25° C. The procedure:
FIGS. 6A-6D. (a) Selective activation of 2c in vitro by E. coli nitroreductase. (b) Time dependent fluorescence emission by 2a, 2b and 2c (excitation at 572 nm; emission at 703 nm) in PBS at 25° C. following treatment with E. coli NTR (1 μg mL^−1) and 0.5 mM NADH. (c) Absorbance spectrum evolution with time during incubation of probe 2c in […] PBS buffer, pH 7.4, with E. coli NTR (1 μg mL^−1) and 0.5 mM NADH. (d) Development of fluorescence from 10 μM 2c following treatment with 1 μg mL^−1 DT diaphorase (DTD) or nitroreductase (NTR) in 10 mM PBS buffer, pH 7.4, for 20 min at 25° C. with or without […] NADH.
The strategy for the release of the fluorescent NIR dye from a non-fluorescent precursor via mitochondrial nitroreductase-mediated reduction involved successive reduction, then elimination (FIG. 5b). The use of ortho, meta and para substituted probes (2a-2c) was crucial because it enabled the investigation of the proposed transformation in greater detail. […] To assess the viability of these probes for the detection of nitroreductase activity, we first validated the probes in a cell free system using purified E. coli nitroreductase. […] After a short time, during which no fluorescence was observed, the nitroreductase was added (1 μg mL^−1) and the development of fluorescence was monitored as a function of time (FIGS. 6b, 6c). […]

Data set [1] has as its system mitochondrial nitroreductase in live A549 cells. The experiment in a line: Fluorescence microscopy: activation of probes 2a, 2b and 2c in live A549 cells. It counts as cell-based, human.
From the text: as §1
Fluorescence images were acquired using a Zeiss Axiovert 200M inverted microscope fitted with an AxioCam MRm camera equipped with a 300 W xenon lamp (Sutter, Novato, Calif.), and Texas red and FITC filters (Chroma, Bellows Falls, Vt.). […] Thereafter, all images were recorded and the target cells counted using a 40× oil objective. […] Pixel intensity was quantified using AxioVision release 4.7 version software, and the mean pixel intensity was generated as gray level. […]

Data set [2] deals with NADH oxidase (mitochondrial respiratory complexes I, III, and IV). The experiment in a line: NADH oxidase activity assay in bovine heart submitochondrial particles. It counts as biochemical. The conditions noted are these: for NADH oxidase inhibitory activity (qualitative comparison): 0.05, 0.1 and 0.5 μM concentrations, FIG. 9a. The procedure: The effect of compounds AMA, 4a and 4b on NADH oxidase activity were evaluated using bovine heart mitochondria. The bovine heart mitochondria and bovine heart submitochondrial particles (SMPs) were prepared as described.^2 The SMPs were diluted to 0.5 mg/mL, and the test compounds were assayed at 25° C. and monitored spectrophotometrically using a Beckman Coulter DU-530 spectrometer (340 nm, c 6.22 mM^−1 cm^−1). NADH oxidase activity was determined in 1 mL of 50 mM Hepes buffer containing 5 mM MgCl2, pH 7.5. The final mitochondrial protein concentration was 30 μg/mL. The initial rates of NADH oxidation were calculated from the linear portion of the traces. Data are reported as the mean of three independent experiments each run in triplicate.

The subject of data set [3] is mitochondrial nitroreductase in live A549 cells. Kind of data set: Fluorescence microscopy: activation of prodrugs 4a and 4b (AMA release) in live A549 cells. It counts as cell-based, human. As to conditions: 25 μM; for release of AMA (appearance of AMA fluorescence, λem ~425 nm) in live A549 cells: 4 hours; for localization of AMA fluorescence relative to mitochondria in A549 cells: MitoTracker Green FM. The procedure:
The finding of nitroreductase activity associated with the mitochondria of human cells encouraged us to design a new prodrug based on the mitochondrial poison antimycin A (AMA). It has recently been noted that AMA is toxic only at relatively high concentration,^19 plausibly due to a lack of facile access to the mitochondria. […] Accordingly, 0-p-nitrobenzyl-AMA (4a) was prepared in good yield by alkylation of AMA (FIG. 8a). Also prepared as a control was O-benzyl-AMA (4b). […] Accordingly, it is possible to monitor the release of AMA within the mitochondria after enzymatic reduction of the nitro moiety in 4a.
Fluorescence microscopy images were acquired using a Zeiss Axiovert 200M inverted microscope fitted with an AxioCam MRm camera equipped with a 300 W xenon lamp (Sutter, Novato, Calif., USA), and DAPI (blue channel) and Texas red (red channel) filters (Chroma, Bellows Falls, Vt., USA). A549 cells were grown on glass bottom microwell disks (MatTek Corporation, MA, USA) at a cell density of 10000 cells/well at 37° C. for 24 hours. When the cell confluence reached ˜60-70%, the cells were rinsed three times with phosphate buffered saline (PBS). The cells were then treated with AMA, 4a and 4b at 25 μM concentration for 4 hours. The cells were then stained using 100 nM MitoTracker Green FM (Cell Signaling Technology, Danvers, Mass., USA) for 40 minutes. Thereafter, all images were recorded and counted using a 40× oil objective. To ensure accurate intensity measurements, the exposure time and laser time were kept the same. Data are reported as the mean of three independent experiments.

For the next data set, the system named is A549 lung cancer cells. The experiment in a line: MTT toxicity assay. It counts as cell-based, human. As to conditions: 24 h incubation at 1, 5 and 10 μM, FIG. 9b. The procedure: Exponentially growing A459 cells were harvested and plated in 96-well plates at a concentration of 2×10^4 cells/well. After incubation at 37° C. for 24 h, the cells were treated with compounds AMA, 4a and 4b at final concentrations of 1, 5 and 10 μM for an additional 24 hours. Then 20 μL of MTT (5 mg/mL) was added to each well and the plates were incubated at 37° C. for 4 h. The supernatants were discarded, and 100 μL of DMSO was added to each well. The absorbance was recorded at 490 nm after 15 min. Cell viability was determined by the following formula: cell viability (%)=100−(ODnegative control−ODtreatment)×100%/(ODnegative control−ODbackground). Data are reported as the mean of three independent experiments, each run was carried out quintuplicate.

Data set [4] in a line: Relative fluorescence quantum yield. It counts as physicochemical. Here is the method:
All experiments requiring anhydrous conditions were conducted in flame-dried glassware fitted with a rubber septum under a positive pressure of dry argon. Reactions were performed at room temperature unless otherwise indicated. Analytical thin layer chromatography was performed using glass plates pre-coated with silica gel (0.25 mm, 60 Å pore size, 230-400 mesh, Silicycle) impregnated with a fluorescent indicator (254 nm). TLC plates were visualized by exposure to ultraviolet light (UV) or by staining using […]. Flash column chromatography was performed employing silica gel (60 Å pore size, 40-63 μm, standard grade, Silicycle). Fluorescence quantum yields were measured at 25° C. by a relative method using cresyl violet (CV, ΦF=56% in EtOH) as a standard.^1 The following equation was used to determine the relative fluorescence quantum yield: ΦF(x)=(AS/AX)(FX/FS)(nX/nS)^2ΦF(s) where A is the absorbance (in the range of 0.01-0.1 A.U.), F is the area under the emission curve, n is the refractive index of the solvents (at 25° C.) used in measurements, and the subscripts s and x represent standard and unknown, respectively. The following refractive index values were used: 1.362 for EtOH and 1.337 for PBS.

E. coli nitroreductase, sequence (P38489 whole entry): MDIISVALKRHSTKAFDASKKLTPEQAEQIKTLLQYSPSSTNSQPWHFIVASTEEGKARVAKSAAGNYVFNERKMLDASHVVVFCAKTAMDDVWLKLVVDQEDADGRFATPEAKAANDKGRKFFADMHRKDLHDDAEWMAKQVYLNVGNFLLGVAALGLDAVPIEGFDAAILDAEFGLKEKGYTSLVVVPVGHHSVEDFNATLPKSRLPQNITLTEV
DT diaphorase, sequence (P15559 whole entry, species assumed): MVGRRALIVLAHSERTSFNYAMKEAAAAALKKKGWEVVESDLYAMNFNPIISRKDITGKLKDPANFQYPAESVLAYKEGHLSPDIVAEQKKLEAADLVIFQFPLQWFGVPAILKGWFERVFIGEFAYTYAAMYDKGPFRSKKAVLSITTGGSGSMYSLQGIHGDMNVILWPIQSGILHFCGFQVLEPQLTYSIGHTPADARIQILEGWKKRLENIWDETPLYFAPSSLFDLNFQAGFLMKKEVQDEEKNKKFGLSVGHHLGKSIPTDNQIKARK

Regarding `CC[N+]1=C(/C=C/c2ccc(OCc3ccc([N+](=O)[O-])cc3)c(/C=C/C3=[N+](CC)c4ccccc4C3(C)C)c2)C(C)(C)c2ccccc21` [probe 2c], the “rate of activation by E. coli nitroreductase, compared between probes” value on E. coli nitroreductase (10 μM probe, PBS pH 7.4, 0.5 mM NADH, NTR 1 μg mL^-1) was “much faster than the activation of 2a”. Further, the “development of fluorescence (activation) after addition of E. coli nitroreductase” value at E. coli nitroreductase (10 μM probe, PBS pH 7.4, 0.5 mM NADH, NTR 1 μg mL^-1, excitation 572 nm, emission 703 nm, 25° C.) is “good activation”. In addition, the “dependence of fluorescence / activation on probe concentration” value at E. coli nitroreductase (PBS 25° C., 0.5 mM NADH, E. coli NTR 1 μg mL^-1) was “linear correlation between fluorescence intensity and probe concentration; also recorded: increased with increasing substrate concentration”. Moreover, the “activation by DT diaphorase versus nitroreductase, with or without NADH” value on DT diaphorase is given as “significant activation occurred only in the presence of the nitroreductase+NADH”. Also, the “colocalization of probe fluorescence with MitoTracker Green (mitochondria)” value in data set [1] (10 μM 2c, 100 nM MitoTracker Green FM, DAPI) is “colocalized to mitochondria; also recorded: complete overlap of the red and green signals”. For the same compound, the “red fluorescence signal (release of QCy7 dye 3) in live A549 cells” value in data set [1] (10 μM probe, 4 hours incubation, no hypoxic condition) is reported as “activation of 2c by mitochondrial nitroreductase; also recorded: appearance of a red signal”. Besides, in data set [1] (different times and concentrations, FIG. 16), the “concentration dependence of the signal in A549 cells” value was “concentration dependent”.

With `CCCCCC[C@H]1C(=O)O[C@H](C)[C@H](NC(=O)c2cccc(NC=O)c2OCc2ccc([N+](=O)[O-])cc2)C(=O)O[C@@H](C)[C@@H]1OC(=O)CC(C)C` [Compound 4a, 2-O-(p-Nitrobenzyl)AMA], in data set [2], the “NADH oxidase inhibitory activity (qualitative comparison)” value (from here on “NADH oxidase inhibitory activity”) is given as “much weaker activity”. In addition, in data set [3], the “release of AMA (appearance of AMA fluorescence, λem ~425 nm) in live A549 cells” value is “AMA was released from 4a” and the “localization of AMA fluorescence relative to mitochondria in A549 cells” value is listed as “Free AMA appeared exclusively in the mitochondria; also recorded: localized to the mitochondria”. The “cytotoxicity toward A549 cancer cells (qualitative comparison)” value in the data set on A549 lung cancer cells is recorded as “much more cytoxic toward A549 cancer cells than 4b; also recorded: considerably more cytotoxic than exogenously added AMA”.

On to `CCCCCC[C@H]1C(=O)O[C@H](C)[C@H](NC(=O)c2cccc(NC=O)c2O)C(=O)O[C@@H](C)[C@@H]1OC(=O)CC(C)C` [AMA, antimycin A, reference compound], for which the “quantum yield of the released AMA” value in data set [4] was about 0.06. Moreover, the “inhibition of NADH oxidase” value in data set [2] (50 nM concentration) was “essentially completely”. Also, in data set [2], the “NADH oxidase inhibitory activity” value is listed as “potent inhibitor”. Also, the “localization of AMA fluorescence relative to mitochondria in A549 cells” value in data set [3] is listed as “did not fully colocalize with mitochondria”.

As to `CCCCCC[C@H]1C(=O)O[C@H](C)[C@H](NC(=O)c2cccc(NC=O)c2OCc2ccccc2)C(=O)O[C@@H](C)[C@@H]1OC(=O)CC(C)C` [Compound 4b, 2-O-Benzyl-AMA], the “NADH oxidase inhibitory activity” value in data set [2] is recorded as “much weaker activity”. The “release of AMA (appearance of AMA fluorescence, λem ~425 nm) in live A549 cells” value in data set [3] is “no significant release of AMA; also recorded: not to a significant extent”.
